Read-outs that look alike come from different tables or passages of the source.
Experiment: Solubilities in a variety of solubilizers
Format: physicochemical
Settings: organic solvent or mixture
Description: Thus, in order to search for components which suppress the time-dependent crystallization of diclofenac and diclofenac sodium and which can comprise diclofenac sodium in the adhesive layer at a high concentration (3% by mass or greater) of diclofenac, the solubilities of diclofenac and diclofenac sodium were measured in a variety of solubilizers.

Measured: solubility

O=C(O)Cc1ccccc1Nc1c(Cl)cccc1Cl [diclofenac]
≥ 100 mg/mL: N-methylpyrrolidone (NMP), solvent N-methylpyrrolidone, read-out: solubility in N-methylpyrrolidone (NMP) | dimethyl sulfoxide (DMSO), solvent dimethyl sulfoxide, read-out: solubility in dimethyl sulfoxide (DMSO) | dipropylene glycol (DPG), solvent dipropylene glycol, read-out: solubility in dipropylene glycol (DPG) | polyethylene glycol (PEG-400), solvent polyethylene glycol, read-out: solubility in polyethylene glycol (PEG-400)
